Assay results from patent US20070191491A1, “[…] OF STORED GOODS, ENCLOSURES, […] WORKS OF ART, WITH SULPHUR COMPOUNDS” (Arkema France, priority 2002, published 2007).

Assays:
Sitophilus orizae = experiment: Efficacy of DMDS in a silo of wheat grains infested with Sitophilus orizae; format: in vivo; settings: same trial conditions, 20° C.
Experimental: (§1) These two organisms are Sitophilus granarius and Sitophilus orizae.
(§2) Dimensions of the silo: • total height: 40 cm • total volume: 3.3 l • filling level: 75%, that is a grain height of […].
(§3) 99 mg of pure DMDS are deposited at the surface of the grains using a syringe. The samples collected consist of bundles of 50 g of wheat containing all the stages of development of the pathogenic organisms. After degassing by aeration of the silo at the times T, the bundles of wheat are screened and the adults are counted immediately after screening (D+0) and after 14 days (D+14). The wheat containing the other stages of development is then examined for 5 weeks.
The products CT of the concentrations C of DMDS by the times of measurement T are determined and the efficacy of the treatment in relation to the 2 pathogenic organisms studied for all the stages of development is monitored as a function of these products CT. […]
Under the same trial conditions, this time on organisms of the Sitophilus orizae type, similar results are obtained. The pesticidal efficacy of DMDS against the pathogenic organism Sitophilus orizae is evaluated in terms of the product CT at about 100 ghm^−3 (useful CT).

Sitophilus granarius = experiment: Efficacy of DMDS in a silo of wheat grains infested with Sitophilus granarius (adult mortality, % NER); format: in vivo; settings: for Total No. of insects emerged: untreated control 271
Experimental: as §1, §2, §3
The products CT of the concentrations C of DMDS by the times of measurement T are determined and the efficacy of the treatment in relation to the 2 pathogenic organisms studied for all the stages of development is monitored as a function of these products CT. The results are expressed: • as a percentage of the adult mortality at the times (D+0) and (D+14). • as a percentage of net emergence reduction (% NER) relative to an untreated control batch for the different stages of development of these organisms (that is to say eggs and 2nd generation, eggs and 1st stage larvae, 1st and 2nd stage larvae, 2nd and 3rd stage larvae, 3rd and 4th stage larvae, 4th stage larvae and nymphs), which corresponds to the following formula: % NER=(number of insects which emerged live from the control batch−number of insects which emerged live from the treated batch)/(number of insects which emerged live from the control batch).

SMILES: CSSC [DMDS, dimethyl disulphide]
- pesticidal efficacy in terms of the product CT (useful CT) (Sitophilus orizae): about 100 ghm^−3
- % NER Eggs and 2nd generation (Sitophilus granarius; CT 5.8 gh.m^−3, 20° C.): 13%
- % NER Eggs and Ist stage larvae (Sitophilus granarius; CT 5.8 gh.m^−3, 20° C.): 41%
- % NER IIIrd and IVth stage larvae (Sitophilus granarius; CT 5.8 gh.m^−3, 20° C.): 3%
- % NER IInd and IIIrd stage larvae (Sitophilus granarius; CT 5.8 gh.m^−3, 20° C.): 13%
- % NER IVth stage larvae and nymphs (Sitophilus granarius; CT 5.8 gh.m^−3, 20° C.): 21%
- % NER Ist and IInd stage larvae (Sitophilus granarius; CT 5.8 gh.m^−3, 20° C.): 20%
- % adult mortality D + 0 (Sitophilus granarius; CT 5.8 gh.m^−3, 20° C.): 0%
- % adult mortality D + 14 (Sitophilus granarius; CT 5.8 gh.m^−3, 20° C.): 8%
- Total % NER (Sitophilus granarius; CT 5.8 gh.m^−3, 20° C.): 25%
- Total No. of insects emerged (Sitophilus granarius; CT 5.8 gh.m^−3, 20° C.): 202
- % NER Eggs and 2nd generation (Sitophilus granarius; CT 6.1 gh.m^−3, 20° C.): 33%
- % NER Eggs and Ist stage larvae (Sitophilus granarius; CT 6.1 gh.m^−3, 20° C.): 5%
- % NER IIIrd and IVth stage larvae (Sitophilus granarius; CT 6.1 gh.m^−3, 20° C.): 19%
- % NER IInd and IIIrd stage larvae (Sitophilus granarius; CT 6.1 gh.m^−3, 20° C.): 16%
- % NER IVth stage larvae and nymphs (Sitophilus granarius; CT 6.1 gh.m^−3, 20° C.): 54%
- % NER Ist and IInd stage larvae (Sitophilus granarius; CT 6.1 gh.m^−3, 20° C.): 80%
- % adult mortality D + 0 (Sitophilus granarius; CT 6.1 gh.m^−3, 20° C.): 3%
- % adult mortality D + 14 (Sitophilus granarius; CT 6.1 gh.m^−3, 20° C.): 9%
- Total % NER (Sitophilus granarius; CT 6.1 gh.m^−3, 20° C.): 23%
- Total No. of insects emerged (Sitophilus granarius; CT 6.1 gh.m^−3, 20° C.): 208
- % NER Eggs and 2nd generation (Sitophilus granarius; CT 15.0 gh.m^−3, 20° C.): 25%
- % NER Eggs and Ist stage larvae (Sitophilus granarius; CT 15.0 gh.m^−3, 20° C.): 54%
- % NER IIIrd and IVth stage larvae (Sitophilus granarius; CT 15.0 gh.m^−3, 20° C.): 26%
- % NER IInd and IIIrd stage larvae (Sitophilus granarius; CT 15.0 gh.m^−3, 20° C.): 71%
- % NER IVth stage larvae and nymphs (Sitophilus granarius; CT 15.0 gh.m^−3, 20° C.): 75%
- % NER Ist and IInd stage larvae (Sitophilus granarius; CT 15.0 gh.m^−3, 20° C.): 88%
- % adult mortality D + 0 (Sitophilus granarius; CT 15.0 gh.m^−3, 20° C.): 64%
- % adult mortality D + 14 (Sitophilus granarius; CT 15.0 gh.m^−3, 20° C.): 93%
- Total % NER (Sitophilus granarius; CT 15.0 gh.m^−3, 20° C.): 54%
- Total No. of insects emerged (Sitophilus granarius; CT 15.0 gh.m^−3, 20° C.): 126
- % NER Eggs and 2nd generation (Sitophilus granarius; CT 26.9 gh.m^−3, 20° C.): 20%
- % NER Eggs and Ist stage larvae (Sitophilus granarius; CT 26.9 gh.m^−3, 20° C.): 79%
- % NER IIIrd and IVth stage larvae (Sitophilus granarius; CT 26.9 gh.m^−3, 20° C.): 65%
- % NER IInd and IIIrd stage larvae (Sitophilus granarius; CT 26.9 gh.m^−3, 20° C.): 94%
- % NER IVth stage larvae and nymphs (Sitophilus granarius; CT 26.9 gh.m^−3, 20° C.): 92%
- % NER Ist and IInd stage larvae (Sitophilus granarius; CT 26.9 gh.m^−3, 20° C.): 88%
- % adult mortality D + 0 (Sitophilus granarius; CT 26.9 gh.m^−3, 20° C.): 92%
- % adult mortality D + 14 (Sitophilus granarius; CT 26.9 gh.m^−3, 20° C.): 92%
- Total % NER (Sitophilus granarius; CT 26.9 gh.m^−3, 20° C.): 72%
- Total No. of insects emerged (Sitophilus granarius; CT 26.9 gh.m^−3, 20° C.): 75
- % NER Eggs and 2nd generation (Sitophilus granarius; CT 50.5 gh.m^−3, 20° C.): 93%
- % NER Eggs and Ist stage larvae (Sitophilus granarius; CT 50.5 gh.m^−3, 20° C.): 100%
- % NER IIIrd and IVth stage larvae (Sitophilus granarius; CT 50.5 gh.m^−3, 20° C.): 97%
- % NER IInd and IIIrd stage larvae (Sitophilus granarius; CT 50.5 gh.m^−3, 20° C.): 100%
- % NER IVth stage larvae and nymphs (Sitophilus granarius; CT 50.5 gh.m^−3, 20° C.): 100%
- % NER Ist and IInd stage larvae (Sitophilus granarius; CT 50.5 gh.m^−3, 20° C.): 100%
- % adult mortality D + 0 (Sitophilus granarius; CT 50.5 gh.m^−3, 20° C.): 100%
- % adult mortality D + 14 (Sitophilus granarius; CT 50.5 gh.m^−3, 20° C.): 100%
- Total % NER (Sitophilus granarius; CT 50.5 gh.m^−3, 20° C.): 99%
- Total No. of insects emerged (Sitophilus granarius; CT 50.5 gh.m^−3, 20° C.): 4
- % NER Eggs and 2nd generation (Sitophilus granarius; CT 88.4 gh.m^−3, 20° C.): 95%
- % NER Eggs and Ist stage larvae (Sitophilus granarius; CT 88.4 gh.m^−3, 20° C.): 100%
- % NER IIIrd and IVth stage larvae (Sitophilus granarius; CT 88.4 gh.m^−3, 20° C.): 100%
- % NER IInd and IIIrd stage larvae (Sitophilus granarius; CT 88.4 gh.m^−3, 20° C.): 100%
- % NER IVth stage larvae and nymphs (Sitophilus granarius; CT 88.4 gh.m^−3, 20° C.): 100%
- % NER Ist and IInd stage larvae (Sitophilus granarius; CT 88.4 gh.m^−3, 20° C.): 100%
- % adult mortality D + 0 (Sitophilus granarius; CT 88.4 gh.m^−3, 20° C.): 100%
- % adult mortality D + 14 (Sitophilus granarius; CT 88.4 gh.m^−3, 20° C.): 100%
- Total % NER (Sitophilus granarius; CT 88.4 gh.m^−3, 20° C.): 99%
- Total No. of insects emerged (Sitophilus granarius; CT 88.4 gh.m^−3, 20° C.): 2
- % NER Eggs and 2nd generation (Sitophilus granarius; CT 160.4 gh.m^−3, 20° C.): 100%
- % NER Eggs and Ist stage larvae (Sitophilus granarius; CT 160.4 gh.m^−3, 20° C.): 100%
- % NER IIIrd and IVth stage larvae (Sitophilus granarius; CT 160.4 gh.m^−3, 20° C.): 100%
- % NER IInd and IIIrd stage larvae (Sitophilus granarius; CT 160.4 gh.m^−3, 20° C.): 100%
- % NER IVth stage larvae and nymphs (Sitophilus granarius; CT 160.4 gh.m^−3, 20° C.): 100%
- % NER Ist and IInd stage larvae (Sitophilus granarius; CT 160.4 gh.m^−3, 20° C.): 100%
- % adult mortality D + 0 (Sitophilus granarius; CT 160.4 gh.m^−3, 20° C.): 100%
- % adult mortality D + 14 (Sitophilus granarius; CT 160.4 gh.m^−3, 20° C.): 100%
- Total % NER (Sitophilus granarius; CT 160.4 gh.m^−3, 20° C.): 100%
- Total No. of insects emerged (Sitophilus granarius; CT 160.4 gh.m^−3, 20° C.): 0
- mortality for the majority of the stages (Sitophilus granarius; CT values greater than 50 gh.m^−3): 100%
- mortality for all the stages of development (Sitophilus granarius; product CT of 160 gh.m^−3): 100%
- pesticidal efficacy in terms of the product CT (useful CT) (Sitophilus granarius; wheat silo, 20° C.): about 100 ghm^−3
